What all share (assay type): biochemical
The target of assay [1] is FAAH (Homo sapiens (Human), UniProt O00519). The assay can be described thus: In vitro competitive activity-based protein profiling, human proteomes (prefrontal cortex or PC3 cell membrane fractions). The settings on record: human proteome; for inhibition at 1 µM: read-out: FAAH % inh. 1 μM (human). Put shortly: (§1)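 Activity of MAGL and FAAH was quantified from fluorescent gel band intensities. Beforehand, inhibitors at several concentrations competed against subsequent probe labelling (FP-Rh, JW912 or HT-01) in species-matched proteomes, each step 30 min at 37° C.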

For assay [2], the target named is MAGL (Homo sapiens (Human), UniProt Q99685). The assay is described as above. The settings on record: human proteome; for inhibition at 1 µM: read-out: MAGL % inh. 1 μM (human); for inhibition at 10 µM: read-out: MAGL % inh. (human) @ 10 μM; for inhibition at 50 µM: read-out: MAGL % inh. (human) @ 50 μM. Put shortly:
as §1

The target of assay [3] is MAGL (Mus musculus (Mouse), UniProt O35678). The assay can be described thus: In vitro competitive activity-based protein profiling, mouse proteomes (brain membrane fraction or cell lysates). The settings on record: mouse proteome, read-out: MAGL % inh. 1 μM (mouse). Put shortly: as §1
The target of assay [4] is FAAH (Mus musculus (Mouse), UniProt O08914). The assay is described as above. The settings on record: mouse proteome, read-out: FAAH % inh. 1 μM (mouse). Put shortly: as §1
Chain of FAAH (Mus musculus (Mouse), UniProt O08914) (O08914 whole entry): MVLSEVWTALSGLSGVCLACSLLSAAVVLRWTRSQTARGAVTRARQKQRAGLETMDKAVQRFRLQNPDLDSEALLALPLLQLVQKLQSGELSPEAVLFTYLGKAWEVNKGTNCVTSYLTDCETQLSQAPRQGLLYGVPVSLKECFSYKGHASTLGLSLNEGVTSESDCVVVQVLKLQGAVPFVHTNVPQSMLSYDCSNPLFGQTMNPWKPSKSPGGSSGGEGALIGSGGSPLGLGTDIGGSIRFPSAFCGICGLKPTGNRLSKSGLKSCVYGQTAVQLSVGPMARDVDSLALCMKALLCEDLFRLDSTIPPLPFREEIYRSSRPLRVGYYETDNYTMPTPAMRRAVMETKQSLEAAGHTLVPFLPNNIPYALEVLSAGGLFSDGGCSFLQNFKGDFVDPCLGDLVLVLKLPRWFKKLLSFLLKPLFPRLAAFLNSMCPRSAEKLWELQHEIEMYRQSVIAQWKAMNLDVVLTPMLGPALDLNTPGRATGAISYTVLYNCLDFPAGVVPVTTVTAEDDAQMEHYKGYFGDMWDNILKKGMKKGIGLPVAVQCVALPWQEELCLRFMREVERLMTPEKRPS

Chain of FAAH (Homo sapiens (Human), UniProt O00519) (O00519 whole entry): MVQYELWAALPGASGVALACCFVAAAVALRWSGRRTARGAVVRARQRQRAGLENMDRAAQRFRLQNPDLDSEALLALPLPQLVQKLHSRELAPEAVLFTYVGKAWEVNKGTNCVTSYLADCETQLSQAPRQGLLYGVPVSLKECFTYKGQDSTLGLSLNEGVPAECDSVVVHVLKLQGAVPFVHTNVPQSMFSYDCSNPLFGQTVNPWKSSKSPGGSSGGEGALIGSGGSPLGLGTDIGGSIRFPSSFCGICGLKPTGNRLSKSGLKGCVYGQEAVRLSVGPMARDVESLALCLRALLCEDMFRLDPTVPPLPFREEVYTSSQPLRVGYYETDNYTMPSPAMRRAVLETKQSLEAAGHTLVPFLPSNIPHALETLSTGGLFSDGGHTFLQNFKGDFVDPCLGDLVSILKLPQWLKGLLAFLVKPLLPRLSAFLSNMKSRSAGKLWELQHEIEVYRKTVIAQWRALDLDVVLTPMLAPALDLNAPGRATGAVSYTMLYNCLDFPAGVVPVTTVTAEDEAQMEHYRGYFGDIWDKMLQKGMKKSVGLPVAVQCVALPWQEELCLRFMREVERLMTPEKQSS
Chain of MAGL (Mus musculus (Mouse), UniProt O35678) (O35678 whole entry): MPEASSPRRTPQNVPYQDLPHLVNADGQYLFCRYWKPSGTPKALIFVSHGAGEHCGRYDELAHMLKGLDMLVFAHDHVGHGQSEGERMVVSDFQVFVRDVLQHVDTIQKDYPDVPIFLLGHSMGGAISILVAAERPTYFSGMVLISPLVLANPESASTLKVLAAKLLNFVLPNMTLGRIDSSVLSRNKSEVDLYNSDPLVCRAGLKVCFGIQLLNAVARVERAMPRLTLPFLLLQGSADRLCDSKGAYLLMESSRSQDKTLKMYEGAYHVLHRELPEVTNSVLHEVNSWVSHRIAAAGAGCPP
Chain of MAGL (Homo sapiens (Human), UniProt Q99685) (Q99685 whole entry): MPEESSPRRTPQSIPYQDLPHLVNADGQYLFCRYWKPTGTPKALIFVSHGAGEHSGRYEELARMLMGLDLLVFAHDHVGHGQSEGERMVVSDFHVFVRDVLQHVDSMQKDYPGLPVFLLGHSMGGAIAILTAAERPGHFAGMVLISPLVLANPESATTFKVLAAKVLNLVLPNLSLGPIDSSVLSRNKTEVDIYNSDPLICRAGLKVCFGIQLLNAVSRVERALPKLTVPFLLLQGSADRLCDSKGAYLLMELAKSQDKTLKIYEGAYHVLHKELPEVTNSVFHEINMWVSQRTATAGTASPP

For `CS(=O)(=O)Nc1ccn(C(=O)N2CC3CN(Cc4ccc(Oc5ccc(Cl)cc5)cc4)CC3C2)n1` (stereo not shown) [Example 40, N-(1-(5-(4-(4-Chlorophenoxy)benzyl)octahydropyrrolo[3,4-c]pyrrole-2-carbonyl)-1H-pyrazol-3-yl)methanesulfonamide], the inhibition at 1 µM on FAAH [1] was 50 to 75%; on MAGL [2], 25 to 50%; on MAGL [3], 25 to 50%; at FAAH [4], above 75%.

Regarding `CC(=O)Nc1ccn(C(=O)N2CCC3(CCCN3Cc3cc4cc(Cl)c(Cl)cc4[nH]3)CC2)n1` [Example 43, N-(1-(1-((5,6-Dichloro-1H-indol-2-yl)methyl)-1,8-diazaspiro[4.5]decane-8-carbonyl)-1H-pyrazol-3-yl)acetamide], the inhibition at 1 µM is 0 to 25% at FAAH [1], above 75% on MAGL [2], above 75% on MAGL [3] and 0 to 25% on FAAH [4]. Also, the half-inhibitory concentration (IC50) – broadly, the concentration at which inhibition is half-maximal – on FAAH [1] was 1 to 10 µM; on MAGL [2], below 0.1 µM.

`CS(=O)(=O)Nc1ccn(C(=O)N2CC3CN(Cc4cc(Cl)ccc4C(F)(F)F)CC3C2)n1` (stereo not shown) [Example 45, N-(1-(5-(5-Chloro-2-(trifluoromethyl)benzyl)octahydropyrrolo[3,4-c]pyrrole-2-carbonyl)-1H-pyrazol-3-yl)methanesulfonamide]: the inhibition at 1 µM on FAAH [1], on MAGL [3] and at FAAH [4] was 0 to 25% in each case. Moreover, the inhibition at 10 µM on MAGL [2] fell in the range of 0 to 25%.

As to `CS(=O)(=O)Nc1ccn(C(=O)N2CCC3(CCN(Cc4cc(Cl)ccc4C(F)(F)F)C3)CC2)n1` [Example 46, N-(1-(2-(5-Chloro-2-(trifluoromethyl)benzyl)-2,8-diazaspiro[4.5]decane-8-carbonyl)-1H-pyrazol-3-yl)methanesulfonamide], the inhibition at 1 µM on FAAH [1], on MAGL [3] and on FAAH [4] was 0 to 25% each time. The inhibition at 10 µM on MAGL [2] fell in the range of 25 to 50%.

Take `CS(=O)(=O)Nc1ccn(C(=O)N2CC3CN(Cc4ccc(N5CCCC5)cc4C(F)(F)F)CC3C2)n1` (stereo not shown) [Example 47, N-(1-(5-(4-(Pyrrolidin-1-yl)-2-(trifluoromethyl)benzyl)octahydropyrrolo[3,4-c]pyrrole-2-carbonyl)-1H-pyrazol-3-yl)methanesulfonamide]: the inhibition at 1 µM on FAAH [1], on MAGL [3] and on FAAH [4] was 0 to 25% throughout. The inhibition at 50 µM at MAGL [2] fell in the range of 25 to 50%.

Take `CS(=O)(=O)Nc1ccn(C(=O)N2CCC3(CCN(Cc4ccc(N5CCCC5)cc4C(F)(F)F)C3)CC2)n1` [Example 48, N-(1-(2-(4-(Pyrrolidin-1-yl)-2-(trifluoromethyl)benzyl)-2,8-diazaspiro[4.5]decane-8-carbonyl)-1H-pyrazol-3-yl)methanesulfonamide]: the inhibition at 1 µM at FAAH [1], on MAGL [3] and at FAAH [4] was 0 to 25% in each case. For the same compound, at MAGL [2], the inhibition at 50 µM was in the range of 25 to 50%.

As for `CC(=O)Nc1ccn(C(=O)N2CCC3(CCCN3Cc3cc4cc(C(=O)O)ccc4[nH]3)CC2)n1` [Example 49, 2-((8-(3-Acetamido-1H-pyrazole-1-carbonyl)-1,8-diazaspiro[4.5]decan-1-yl)methyl)-1H-indole-5-carboxylic acid], the inhibition at 1 µM on FAAH [1] fell in the range of 0 to 25%; on MAGL [2] it was 25 to 50%; on MAGL [3], 50 to 75%; on FAAH [4] it was 0 to 25%.

Regarding `CN(Cc1ccc(N2CCCC2)cc1C(F)(F)F)[C@H]1C[C@@H]2CN(C(=O)n3ccc(NS(C)(=O)=O)n3)C[C@@H]2C1` [Example 50, N-(1-((3aR,5r,6aS)-5-(Methyl(4-(pyrrolidin-1-yl)-2-(trifluoromethyl)benzyl)amino)octahydrocyclopenta[c]pyrrole-2-carbonyl)-1H-pyrazol-3-yl)methanesulfonamide], the inhibition at 1 µM at FAAH [1] is 0 to 25%; on MAGL [2] it was 50 to 75%; at MAGL [3] it was 50 to 75%; at FAAH [4] it was above 75%.

With `CN(Cc1cc(Cl)ccc1C(F)(F)F)[C@H]1C[C@@H]2CN(C(=O)n3ccc(NS(C)(=O)=O)n3)C[C@@H]2C1` [Example 51, N-(1-((3aR,5r,6aS)-5-((5-Chloro-2-(trifluoromethyl)benzyl)(methyl)amino)octahydrocyclopenta[c]pyrrole-2-carbonyl)-1H-pyrazol-3-yl)methanesulfonamide], the inhibition at 1 µM on FAAH [1], at MAGL [2], on MAGL [3] and at FAAH [4] was above 75% each time. Moreover, the IC50 was 0.1 to 1 µM at FAAH [1] and below 0.1 µM on MAGL [2].

As for `CS(=O)(=O)Nc1ccn(C(=O)N2CCN(Cc3cc4ccc(C(F)(F)F)cc4s3)CC2)n1` [Example 52, N-(1-(4-((6-(Trifluoromethyl)benzo[b]thiophen-2-yl)methyl)piperazine-1-carbonyl)-1H-pyrazol-3-yl)methanesulfonamide], the inhibition at 1 µM on FAAH [1] was 0 to 25%; on MAGL [2], above 75%; on MAGL [3] it was above 75%; at FAAH [4], 0 to 25%. Further, the figures for the IC50 at FAAH [1] and at MAGL [2] were 1 to 10 µM and below 0.1 µM, respectively.

Regarding `CS(=O)(=O)Nc1ccn(C(=O)N2CCC3(CCCN3Cc3cc4ccc(C(F)(F)F)cc4s3)CC2)n1` [Example 53, N-(1-(1-((6-(Trifluoromethyl)benzo[b]thiophen-2-yl)methyl)-1,8-diazaspiro[4.5]decane-8-carbonyl)-1H-pyrazol-3-yl)methanesulfonamide], the inhibition at 1 µM at FAAH [1], at MAGL [3] and on FAAH [4] was 0 to 25% each time. For the same compound, the inhibition at 10 µM on MAGL [2] is above 75%.

As to `CS(=O)(=O)Nc1ccn(C(=O)N2CCN(Cc3cc4ccccc4s3)CC2)n1` [Example 54, N-(1-(4-(Benzo[b]thiophen-2-ylmethyl)piperazine-1-carbonyl)-1H-pyrazol-3-yl)methanesulfonamide], the inhibition at 1 µM was 0 to 25% on FAAH [1], above 75% at MAGL [2], above 75% at MAGL [3] and 0 to 25% on FAAH [4].

As to `CS(=O)(=O)Nc1ccn(C(=O)N2CCN(Cc3cc4ccccc4[nH]3)CC2)n1` [Example 55, N-(1-(4-((1H-Indol-2-yl)methyl)piperazine-1-carbonyl)-1H-pyrazol-3-yl)methanesulfonamide], the inhibition at 1 µM at FAAH [1] is 0 to 25%; on MAGL [2], above 75%; on MAGL [3], above 75%; on FAAH [4] it was 0 to 25%.

Regarding `CS(=O)(=O)Nc1ccn(C(=O)N2CCN(Cc3nc4ccccc4s3)CC2)n1` [Example 56, N-(1-(4-(Benzo[d]thiazol-2-ylmethyl)piperazine-1-carbonyl)-1H-pyrazol-3-yl)methanesulfonamide], the inhibition at 1 µM was 0 to 25% on FAAH [1], above 75% on MAGL [2], above 75% on MAGL [3] and 0 to 25% on FAAH [4].

In the case of `Cc1c(CN2CCN(C(=O)n3ccc(NS(C)(=O)=O)n3)CC2)sc2ccccc12` [Example 57, N-(1-(4-((3-Methylbenzo[b]thiophen-2-yl)methyl)piperazine-1-carbonyl)-1H-pyrazol-3-yl)methanesulfonamide], the inhibition at 1 µM was 0 to 25% at FAAH [1], above 75% at MAGL [2], above 75% at MAGL [3] and 0 to 25% at FAAH [4].

`CS(=O)(=O)Nc1ccn(C(=O)N2CCC3(CCN(Cc4cc(N5CCOCC5)cc(C(F)(F)F)c4)C3)CC2)n1` [Example 59, N-(1-(2-(3-Morpholino-5-(trifluoromethyl)benzyl)-2,8-diazaspiro[4.5]decane-8-carbonyl)-1H-pyrazol-3-yl)methanesulfonamide]: the inhibition at 1 µM at FAAH [1] was 0 to 25%; at MAGL [2], above 75%; on MAGL [3], above 75%; on FAAH [4], 0 to 25%.

Turning to `CS(=O)(=O)Nc1ccn(C(=O)N2CCC3(CCN(Cc4ccc(C(F)(F)F)cc4N4CCC(F)CC4)CC3)C2)n1` [Example 60, N-(1-(8-(2-(4-Fluoropiperidin-1-yl)-4-(trifluoromethyl)benzyl)-2,8-diazaspiro[4.5]decane-2-carbonyl)-1H-pyrazol-3-yl)methanesulfonamide], the inhibition at 1 µM at FAAH [1] is 0 to 25%; at MAGL [2], above 75%; at MAGL [3], above 75%; at FAAH [4], 0 to 25%.

Take `Cc1nc(Cl)ccc1CN1CCN(C(=O)n2ccc(NS(C)(=O)=O)n2)CC1` [Example 61, N-(1-(4-((6-Chloro-2-methylpyridin-3-yl)methyl)piperazine-1-carbonyl)-1H-pyrazol-3-yl)methanesulfonamide]: the inhibition at 1 µM is 0 to 25% on FAAH [1], 25 to 50% on MAGL [2], 50 to 75% on MAGL [3] and 0 to 25% at FAAH [4].

On to `CS(=O)(=O)Nc1ccn(C(=O)N2CCC3(CCN(Cc4ccc(C(F)(F)F)cc4N4CCOCC4)C3)CC2)n1` [Example 62, N-(1-(2-(2-Morpholino-4-(trifluoromethyl)benzyl)-2,8-diazaspiro[4.5]decane-8-carbonyl)-1H-pyrazol-3-yl)methanesulfonamide], for which the inhibition at 1 µM is 0 to 25% on FAAH [1], above 75% at MAGL [2], above 75% on MAGL [3] and 0 to 25% on FAAH [4].

The values are drawn from patent US11149037B2, “Pyrazole MAGL inhibitors” (H. Lundbeck A/S, priority 2017, dated 2021).
